Results published in paper PMC6835510, “Magnificamide, a β-Defensin-Like Peptide from the Mucus of the Sea Anemone Heteractis magnifica, Is a Strong Inhibitor of Mammalian α-Amylases” (Marine Drugs, 2019).
Bridge positions count the residues as written; N and C are the ends. Ends that are not written are not given here.

Assays:
[1] = target: T1, porcine pancreatic α-amylase (PPA) (Sus scrofa, UniProt P00690); assay: Determination of Ki against porcine pancreatic α-amylase (Morrison); type: biochemical; settings: 37 °C, 50 mM sodium phosphate, 100 mM NaCl, pH 7.0; CNPG3 1 mM (KM 0.71 mM), nominal [E] 20 nM; 10 min pre-incubation; 405 nm; Morrison fit, competitive mode assumed; mean ± SE (n = 3)
T1 construct: purchased Sigma Aldrich A4268
T1 sequence (P00690 16-511): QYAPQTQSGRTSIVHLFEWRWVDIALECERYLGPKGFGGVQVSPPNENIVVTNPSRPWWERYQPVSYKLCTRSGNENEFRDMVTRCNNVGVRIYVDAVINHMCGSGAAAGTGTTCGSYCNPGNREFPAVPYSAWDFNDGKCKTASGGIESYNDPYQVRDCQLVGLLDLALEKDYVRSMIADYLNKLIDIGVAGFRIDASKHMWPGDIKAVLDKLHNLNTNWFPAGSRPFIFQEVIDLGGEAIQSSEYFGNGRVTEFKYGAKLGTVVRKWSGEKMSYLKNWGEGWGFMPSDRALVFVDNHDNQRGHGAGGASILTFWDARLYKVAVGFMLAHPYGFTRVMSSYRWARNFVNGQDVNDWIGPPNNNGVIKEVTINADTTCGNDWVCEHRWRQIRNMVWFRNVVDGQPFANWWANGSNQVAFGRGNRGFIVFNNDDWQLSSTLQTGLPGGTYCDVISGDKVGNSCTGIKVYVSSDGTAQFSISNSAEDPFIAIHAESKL
Protocol: For a quantitative assessment of tight-binding inhibitor potency, Morrison’s method was applied. This method uses the Morrison quadratic equation (Equation (1)) for fitting inhibitor-response data and determining Ki app as a nonlinear regression parameter. (1) υ/υo=1−([E]+[I]+Kiapp)−([E]+[I]+Kiapp)^2−4[E][I]/2[E]o
Kinetic assays were carried out at 37 °C in 50 mM sodium phosphate and 100 mM sodium chloride (pH 7.0). 2-Chloro-4-nitrophenyl-α-maltotrioside (CNPG3) (Sigma Aldrich, St. Louis, MO, USA) was used as the substrate and the optical absorption of the 2-chloro-4-nitrophenol was measured at 405 nm. Reactions were run with final [CNPG3] = 1 mM ([S]/KM = 1.41, KM = 0.71 mM), nominal [E] = 20 nM for PPA, [CNPG3] = 3.3 mM ([S]/KM = 0.97, KM = 3.4 mM), and nominal [E] = 100 nM for HSA to provide sufficient analytical signal. Inhibitor dilution schemes were optimized considering recommendations in [34].
The enzyme was pre-incubated with the inhibitor for 10 minutes before the addition of substrate which launched the reaction. Reactions were monitored on an xMark microplate spectrophotometer (BioRad, USA) in the kinetic mode for 30 min. The initial linear steady state region provided initial rate values for each inhibitor concentration (υ), along with uninhibited rate values (υo). Measurements were run in triplicate. […]

BgNav1 = assay: Two-electrode voltage-clamp; type: cell-based, Blattella germanica; settings: 10 µM; insect channel; Xenopus laevis oocytes; 18–22 °C
Description: For the expression of Nav channels (mammalian rNav1.2, rNav1.4, hNav1.5, mNav1.6 and hNav1.8 channels; the insect channel BgNav1 from Blattella germanica; and the auxiliary subunits rβ1, hβ1, and TipE) and Kv channels (mammalian rKv1.1, rKv1.2, hKv1.3, rKv1.4, rKv1.5, rKv1.6, rKv2.1, hKv3.1, rKv4.2, hKv10.1, and hERG; and Drosophila Shaker’s IR) in Xenopus laevis oocytes; the linearized plasmids were transcribed using the T7 or SP6 mMESSAGE-mMACHINE transcription kit (Ambion, Carlsbad, CA, USA). The harvesting of stage V–VI oocytes from anesthetized female Xenopus laevis frog was previously described. Oocytes were injected with 50 nL of cRNA at a concentration of 1 ng/nL using a microinjector (Drummond Scientific, Broomall, PA, USA). The oocytes were incubated in a solution containing 96-mM NaCl, 2-mM KCl, 1.8-mM CaCl2, 2-mM MgCl2, and 5-mM HEPES (pH 7.4), supplemented with 50 mg/L gentamycin sulfate.
Two-electrode voltage-clamp recordings were performed at room temperature (18–22 °C) using a Geneclamp 500 amplifier (Molecular Devices, Downingtown, PA, USA) controlled by a pClamp data acquisition system (Axon Instruments, Union City, CA, USA). Whole cell currents from oocytes were recorded 1–4 days after injection. […] All data were analyzed using pClamp Clampfit 10.0 (Molecular Devices, Downingtown, PA, USA) and Origin 7.5 software (Originlab, Northampton, MA, USA).

Sequence: SEGTSCYIYHGVYGICKAKCAEDMKAMAGMGVCEGDLCCYKTPW (disulfide 6-38, 16-33, 20-39) [r-magnificamide]
- Ki [1]: 0.17 ± 0.06 nM
- Channel modulating activity, BgNav1 (BgNav1): Not active
